Laboratory results as given in US20240252527A9, “NUCLEOSIDE DRUGS FOR THE TREATMENT OR PREVENTION OF CORONAVIRUS INFECTION AND THEIR USES” (Miracure Biotechnology Limited, priority 2022, published 2024).
Like-named read-outs stand apart in the source and are kept apart here.

Legend:
[1] = tested on: 229E; assay: 229E MRC5 CPE assay (cytopathic experiment); assay type: cell-based, coronavirus 229E (HCoV-229E)
Method: (§1) Cells were seeded into microplates at a certain density and cultured overnight in a incubator at 5% CO2, 37° C. The next day, double-diluted compound and virus were added. It was set up a cell control group (cells without treatment with a compound or virus infection), a virus control group (cells infected with virus, no compound treatment) and a culture medium control group (medium only). Cells were cultured in the incubator for 3 days (229E) or 7 days (OC43). Cytotoxicity experiments were performed under the same conditions as antiviral experiments, but without virus infection. Cell viability was tested using a cell viability assay kit Cell Titer Glo (Promega).
(§2) The antiviral activity and cytotoxicity of the compounds were expressed by the inhibition rate (%) and cell viability (%) of the compounds against virus-induced cytopathic effects at different concentrations, respectively. Nonlinear fitting analysis on the inhibition rate and cell viability of the compounds were carried out with the GraphPad Prism, and the half effective concentration (EC50), the […] effective concentration (EC90), the half cytotoxic concentration (CC50) and the 90% cytotoxic concentration of the compound […] values were calculated.

[2] = tested on: OC43; assay: OC43 Huh7 CPE assay (cytopathic experiment); assay type: cell-based, coronavirus OC43 (HCoV-OC43); conditions: for EC50: read-out: OC43 Huh7 CPE assay (μM) EC50; for EC90: read-out: OC43 Huh7 CPE assay (μM) EC90
Method: as §1, §2

[3] = Human coronavirus 229E, MRC5, 72 h, read-out: 229E MRC5 CPE assay (μM) EC50
[4] = Human coronavirus 229E, MRC5, 72 h, read-out: 229E MRC5 CPE assay (μM) EC90
[5] = Betacoronavirus 1, OC43, Huh-7, 168 h
[6] = Human coronavirus 229E, MRC5, 72 h; read-out: 229E MRC5 CPE assay (μM) EC50
[7] = Human coronavirus 229E, MRC5, 72 h; read-out: 229E MRC5 CPE assay (μM) EC90
[8] = Betacoronavirus 1, Huh-7, 168 h, Huh7 cells, OC43 virus, 7 days, Cell Titer Glo

Row | Structure (SMILES) | EC50 [1, 3] [µM] | EC90 [1, 4] [µM] | EC50 [2, 5] [µM] | EC90 [2, 5] [µM] | EC50 [1, 6] [µM] | EC90 [1, 7] [µM] | EC50 [2, 8] [µM] | EC90 [2, 8] [µM]
1 | CCCN(CCC)S(=O)(=O)c1ccc(C(=O)OCOP(=O)(NC(C)(C)C(=O)OC(C)C)OC[C@H]2O[C@@](C#N)(c3ccc4c(N)ncnn34)[C@H](O)[C@@H]2O)cc1 (stereo partly drawn) [Compound 163] | > 0.5 | > 0.5 | > 0.5 | > 0.5 | – | – | – | –
2 | [2H]c1cc([C@]2(C#N)O[C@@H]3CO[P@@](=O)(O)O[C@H]3[C@H]2OC(=O)C(CCC)CCC)n2ncnc(N)c12 [Compound 209] | > 0.5 | > 0.5 | > 0.5 | 0.1 to 0.5 | – | – | – | –
3 | N#C[C@@]1(c2ccc3c(N)ncnn23)O[C@@H]2CO[P@@](=O)(Oc3ccccc3)O[C@H]2[C@H]1O [Compound 220] | – | – | > 0.5 | > 0.5 | > 0.5 | > 0.5 | – | –
4 | CCC(CC)COC(=O)[C@H](C)N[P@]1(=O)OC[C@H]2O[C@@](C#N)(c3ccc4c(N)ncnn34)[C@H](O)[C@@H]2O1 [Compound 126] | < 0.1 | 0.1 to 0.5 | < 0.1 | 0.1 to 0.5 | – | – | – | –
5 | CC(C)OC(=O)CO[P@]1(=O)OC[C@H]2O[C@@](C#N)(c3ccc4c(N)ncnn34)[C@H](O)[C@@H]2O1 [Compound 146] | > 0.5 | > 0.5 | > 0.5 | > 0.5 | – | – | – | –
6 | CCCN(CCC)S(=O)(=O)c1ccc(C(=O)OCO[P@]2(=O)OCC3O[C@@](C#N)(c4ccc5c(N)ncnn45)[C@H](O)[C@@H]3O2)cc1 (stereo partly drawn) [Compound 157] | 0.1 to 0.5 | > 0.5 | > 0.5 | > 0.5 | – | – | – | –
7 | CCCC(CCC)C(=O)OCO[P@@]1(=O)OC[C@H]2O[C@@](C#N)(c3ccc4c(N)ncnn34)[C@H](O)[C@@H]2O1 [Compound 129] | < 0.1 | < 0.1 | < 0.1 | > 0.5 | – | – | – | –
8 | CC(C)(C)C(=O)OCO[P@]1(=O)OCC2O[C@@](C#N)(c3ccc4c(N)ncnn34)[C@H](O)[C@@H]2O1 (stereo partly drawn) [Compound 198] | 0.1 to 0.5 | > 0.5 | > 0.5 | > 0.5 | – | – | – | –
9 | CCC(CC)COC(=O)[C@H](C)NP(=O)(OCOC(=O)C(C)(C)C)OC[C@H]1O[C@@](C#N)(c2ccc3c(N)ncnn23)[C@H](O)[C@@H]1O (stereo partly drawn) [Compound 193] | 0.1 to 0.5 | > 0.5 | 0.1 to 0.5 | > 0.5 | – | – | – | –
10 | CC(C)(C)C(=O)OCOP(=O)(OCOC(=O)C(C)(C)C)OC[C@H]1O[C@@](C#N)(c2ccc3c(N)ncnn23)[C@H](O)[C@@H]1O [Compound 196] | 0.1 to 0.5 | > 0.5 | 0.1 to 0.5 | > 0.5 | – | – | – | –
11 | [2H]c1cc([C@]2(C#N)O[C@@H]3CO[P@](=O)(OCOC(=O)C(CCC)CCC)O[C@H]3[C@H]2O)n2ncnc(N)c12 [Compound 210] | < 0.1 | < 0.1 | < 0.1 | 0.1 to 0.5 | – | – | – | –
12 | CCCC(CCC)C(=O)OCOP(=O)(NC(C)(C)C(=O)OC(C)C)OC[C@H]1O[C@@](C#N)(c2ccc3c(N)ncnn23)[C@H](O)[C@@H]1O (stereo partly drawn) [Compound 034] | 0.1 to 0.5 | > 0.5 | 0.1 to 0.5 | > 0.5 | – | – | – | –
13 | CCCC(CCC)C(=O)OCO[P@](=O)(N[C@@H](Cc1ccccc1)C(=O)OCC(CC)CC)OC[C@H]1O[C@@](C#N)(c2ccc3c(N)ncnn23)[C@H](O)[C@@H]1O [Compound 139] | < 0.1 | 0.1 to 0.5 | < 0.1 | < 0.1 | – | – | – | –
14 | CC(C)OC(=O)C(C)(C)NP(=O)(OCOC(=O)C(C)(C)C)OC[C@H]1O[C@@](C#N)(c2ccc3c(N)ncnn23)[C@H](O)[C@@H]1O (stereo partly drawn) [Compound 195] | 0.1 to 0.5 | > 0.5 | 0.1 to 0.5 | > 0.5 | – | – | – | –
15 | CC(C)(C)C(=O)OCO[P@@]1(=O)OCC2O[C@@](C#N)(c3ccc4c(N)ncnn34)[C@H](O)[C@@H]2O1 (stereo partly drawn) [Compound 197] | 0.1 to 0.5 | > 0.5 | > 0.5 | > 0.5 | – | – | – | –
16 | [2H]c1cc([C@]2(C#N)O[C@@H]3CO[P@](=O)(OCC)O[C@H]3[C@H]2O)n2ncnc(N)c12 [Compound 232] | – | – | – | – | > 0.5 | > 0.5 | > 0.5 | > 0.5
17 | CC(C)OC(=O)CO[P@@]1(=O)OC[C@H]2O[C@@](C#N)(c3ccc4c(N)ncnn34)[C@H](O)[C@@H]2O1 [Compound 147] | > 0.5 | > 0.5 | > 0.5 | > 0.5 | – | – | – | –

Row | Structure (SMILES) | EC50 [1, 3] [µM] | EC90 [1, 4] [µM] | EC50 [2, 5] [µM] | EC90 [2, 5] [µM] | EC50 [1, 6] [µM] | EC90 [1, 7] [µM] | EC50 [2, 8] [µM] | EC90 [2, 8] [µM]
18 | CCCC(CCC)C(=O)OCO[P@@](=O)(N[C@@H](C)C(=O)OC(C)C)OC[C@H]1O[C@@](C#N)(c2ccc3c(N)ncnn23)[C@H](O)[C@@H]1O [Compound 075] | 0.1 to 0.5 | 0.1 to 0.5 | 0.1 to 0.5 | > 0.5 | – | – | – | –
19 | CC(C)(C)C(=O)OCO[P@@](=O)(OC[C@H]1O[C@@](C#N)(c2ccc3c(N)ncnn23)[C@H](O)[C@@H]1O)Oc1ccccc1 [Compound 214] | – | – | > 0.5 | > 0.5 | > 0.5 | > 0.5 | – | –
20 | CCCN(CCC)S(=O)(=O)c1ccc(C(=O)OCO[P@@](=O)(NC(C)(C)C(=O)OC(C)C)OC[C@H]2O[C@@](C#N)(c3ccc4c(N)ncnn34)[C@H](O)[C@@H]2O)cc1 [Compound 162] | > 0.5 | > 0.5 | > 0.5 | > 0.5 | – | – | – | –
21 | CC(C)OC(=O)C(C)(C)N[P@](=O)(OCOC(=O)C(C)(C)C)OC[C@H]1O[C@@](C#N)(c2ccc3c(N)ncnn23)[C@H](O)[C@@H]1O [Compound 194] | 0.1 to 0.5 | > 0.5 | 0.1 to 0.5 | > 0.5 | – | – | – | –
22 | N#C[C@@]1(c2ccc3c(N)ncnn23)O[C@H](COP(=O)(OCOC(=O)OC2CCCC2)OCOC(=O)OC2CCCC2)[C@@H](O)[C@H]1O [Compound 277] | < 0.1 | 0.1 to 0.5 | – | – | – | – | – | –
23 | CCCC(CCC)C(=O)OCO[P@](=O)(OC[C@H]1O[C@@](C#N)(c2ccc3c(N)ncnn23)[C@H](O)[C@@H]1O)Oc1cccc2ccccc12 [Compound 225] | – | – | > 0.5 | > 0.5 | > 0.5 | > 0.5 | – | –
24 | N#C[C@@]1(c2ccc3c(N)ncnn23)O[C@@H]2CO[P@](=O)(OCOC(=O)CCCc3ccccc3)O[C@H]2[C@H]1O [Compound 263] | < 0.1 | < 0.1 | 0.1 to 0.5 | > 0.5 | – | – | – | –
25 | CC(C)OC(=O)C(C)(C)N[P@](=O)(OCOC(=O)CCCc1ccccc1)OC[C@H]1O[C@@](C#N)(c2ccc3c(N)ncnn23)[C@H](O)[C@@H]1O [Compound 270] | > 0.5 | > 0.5 | > 0.5 | > 0.5 | – | – | – | –
26 | CCOC(=O)[C@H](C)N[P@](=O)(OC[C@H]1O[C@@](C#N)(c2ccc3c(N)ncnn23)[C@H](O)[C@@H]1O)Oc1ccc(Nc2ccnc3cc(Cl)ccc23)cc1CN(CC)CC [Compound 088] | – | – | – | – | > 0.5 | > 0.5 | > 0.5 | > 0.5
27 | N#C[C@@]1(c2ccc3c(N)ncnn23)O[C@@H]2CO[P@](=O)(OCOC(=O)C3CCCC3)O[C@H]2[C@H]1O [Compound 261] | 0.1 to 0.5 | > 0.5 | > 0.5 | > 0.5 | – | – | – | –
28 | N#C[C@@]1(c2ccc3c(N)ncnn23)O[C@@H]2COP(=O)(O)O[C@H]2[C@H]1O [Compound 094] | > 0.5 | > 0.5 | > 0.5 | > 0.5 | – | – | – | –
29 | CCC(CC)COC(=O)[C@H](C)N[P@](=O)(OC[C@H]1O[C@@](C#N)(c2ccc3c(N)ncnn23)[C@H](O)[C@@H]1O)Oc1ccc(C[C@H](NC(=O)OCc2ccccc2)C(=O)OC2CCCC2)cc1 [Compound 219] | – | – | – | – | > 0.5 | > 0.5 | > 0.5 | > 0.5
30 | CCCC(CCC)C(=O)OCO[P@@](=O)(N[C@@H](C)C(=O)OCC(CC)CC)OC[C@H]1O[C@@](C#N)(c2ccc3c(N)ncnn23)[C@H](O)[C@@H]1O [Compound 071] | < 0.1 | < 0.1 | < 0.1 | < 0.1 | – | – | – | –
31 | [2H]c1cc([C@]2(C#N)O[C@H](COP(=O)(OCOC(=O)C(CCC)CCC)OCOC(=O)C(CCC)CCC)[C@@H](O)[C@H]2O)n2ncnc(N)c12 [Compound 212] | 0.1 to 0.5 | > 0.5 | 0.1 to 0.5 | > 0.5 | – | – | – | –
32 | CCCC(CCC)C(=O)OCO[P@](=O)(NC(C)(C)C(=O)OC(C)C)OC[C@H]1O[C@@](C#N)(c2ccc3c(N)ncnn23)[C@H](O)[C@@H]1O [Compound 122] | 0.1 to 0.5 | 0.1 to 0.5 | 0.1 to 0.5 | 0.1 to 0.5 | – | – | – | –
33 | CCCN(CCC)S(=O)(=O)c1ccc(C(=O)OCO[P@@](=O)(N[C@@H](C)C(=O)OCC(CC)CC)OC[C@H]2O[C@@](C#N)(c3ccc4c(N)ncnn34)[C@H](O)[C@@H]2O)cc1 [Compound 161] | > 0.5 | > 0.5 | > 0.5 | > 0.5 | – | – | – | –
34 | N#C[C@@]1(c2ccc3c(N)ncnn23)O[C@H](COP(=O)(OCOC(=O)C2CCCC2)OCOC(=O)C2CCCC2)[C@@H](O)[C@H]1O [Compound 265] | > 0.5 | > 0.5 | – | – | – | – | – | –
